From PubChem BioAssay AID256 (DTP/NCI, 2004)
Several values for one entry are separate records, joined by “and”; a condition that tells them apart may be missing. Identical values can stand only once. Toxic doses and inconclusive results are not listed. How the source made its calls: active means survival T/C of 150% or more; inactive means T/C below 125% in these data.

Test system: CD2F1 mice, L1210 leukemia ip, survival T/C
Test: NCI In Vivo Anticancer Drug Screen. Data for tumor model L1210 Leukemia (intraperitoneal) in CD2F1 (CDF1) mice
Conditions: higher = longer survival
Summary of the method: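 Tumor-bearing mice (transplanted tumor) were split into treated and vehicle control groups, and the measured endpoint of each treated group was divided by that of its vehicle controls.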

[1] = endpoint: mean survival time, dose: 25.0 mg/kg/injection, schedule: Q04DX003 (ip), vehicle: saline with Tween-80
[2] = endpoint: mean survival time, dose: 50.0 mg/kg/injection, schedule: Q04DX003 (ip), vehicle: saline with Tween-80
[3] = endpoint: mean survival time, dose: 100.0 mg/kg/injection, schedule: Q04DX003 (ip), vehicle: saline with Tween-80
[4] = endpoint: mean survival time, dose: 200.0 mg/kg/injection, schedule: Q04DX003 (ip), vehicle: saline with Tween-80
[5] = endpoint: mean survival time, dose: 400.0 mg/kg/injection, schedule: Q04DX003 (ip), vehicle: saline with Tween-80
[6] = endpoint: mean survival time, dose: 100.0 mg/kg/injection, schedule: Q04DX002 (ip), vehicle: saline with Tween-80
[7] = endpoint: mean survival time, dose: 25.0 mg/kg/injection, schedule: Q01DX009 (ip), vehicle: saline
[8] = endpoint: mean survival time, dose: 50.0 mg/kg/injection, schedule: Q01DX009 (ip), vehicle: saline
[9] = endpoint: mean survival time, dose: 100.0 mg/kg/injection, schedule: Q01DX009 (ip), vehicle: saline
[10] = endpoint: mean survival time, dose: 100.0 mg/kg/injection, schedule: Q01DX009 (ip), vehicle: saline with Tween-80
[11] = endpoint: mean survival time, dose: 200.0 mg/kg/injection, schedule: Q04DX002 (ip), vehicle: saline with Tween-80
[12] = endpoint: mean survival time, dose: 400.0 mg/kg/injection, schedule: Q04DX002 (ip), vehicle: saline with Tween-80

Measured: T/C

O=C(Nc1cccc(Cl)c1)Nc1ccccc1Cl
inactive: [1] 93 % of control | [2] 96 % of control | [3] 95 % of control | [4] 89 % of control | [5] 97 % of control

CCOC(=O)/C=C/SCCCN
inactive: endpoint: mean survival time, dose: 100.0 mg/kg/injection, schedule: Q04DX003 (ip), vehicle: saline 98 % of control | endpoint: mean survival time, dose: 200.0 mg/kg/injection, schedule: Q04DX003 (ip), vehicle: saline 96 % of control

CC1CCC2CCCCC2[N-]1.CC1CCC2CCCCC2[N-]1.[Cl][Pt+2][Cl] (stereo unspecified)
inactive: [1] 96 % of control | [2] 94 % of control | [3] 94 % of control | [5] 88 % of control

O=C(O)c1c(F)c(F)c(-c2c(F)c(F)c(C(=O)O)c(C(=O)O)c2F)c(F)c1C(=O)O
inactive: endpoint: mean survival time, dose: 100.0 mg/kg/injection, schedule: Q01DX001 (ip), vehicle: saline with Tween-80 95 % of control | endpoint: mean survival time, dose: 200.0 mg/kg/injection, schedule: Q01DX001 (ip), vehicle: saline with Tween-80 96 % of control

CCOC(=O)C(Br)(Br)C(=O)OCC
inactive: endpoint: mean survival time, dose: 6.25 mg/kg/injection, schedule: Q01DX009 (ip), vehicle: saline with Tween-80 99 % of control | endpoint: mean survival time, dose: 12.5 mg/kg/injection, schedule: Q01DX009 (ip), vehicle: saline with Tween-80 99 % of control | endpoint: mean survival time, dose: 25.0 mg/kg/injection, schedule: Q01DX009 (ip), vehicle: saline with Tween-80 99 % of control

C1CN2CCN1CC2.O.[Cl][Pt][Cl]
inactive: endpoint: mean survival time, dose: 12.5 mg/kg/injection, schedule: Q01DX005 (ip), vehicle: water 97 % of control | endpoint: mean survival time, dose: 25.0 mg/kg/injection, schedule: Q01DX005 (ip), vehicle: water 92 % of control | endpoint: mean survival time, dose: 50.0 mg/kg/injection, schedule: Q01DX005 (ip), vehicle: water 92 % of control | endpoint: mean survival time, dose: 50.0 mg/kg/injection, schedule: Q04DX003 (ip), vehicle: water 102 % of control | endpoint: mean survival time, dose: 100.0 mg/kg/injection, schedule: Q01DX005 (ip), vehicle: water 96 % of control | endpoint: mean survival time, dose: 100.0 mg/kg/injection, schedule: Q04DX003 (ip), vehicle: water 94 % of control | endpoint: mean survival time, dose: 200.0 mg/kg/injection, schedule: Q01DX005 (ip), vehicle: water 96 % of control | endpoint: mean survival time, dose: 200.0 mg/kg/injection, schedule: Q04DX003 (ip), vehicle: water 95 % of control | endpoint: mean survival time, dose: 400.0 mg/kg/injection, schedule: Q04DX003 (ip), vehicle: water 107 % of control

CN(C)c1cc(C(C)(C)C)nc(C(C)(C)C)c1
inactive: endpoint: mean survival time, dose: 12.5 mg/kg/injection, schedule: Q04DX002 (ip), vehicle: saline 111 % of control | endpoint: mean survival time, dose: 25.0 mg/kg/injection, schedule: Q04DX002 (ip), vehicle: saline with Tween-80 98 % of control | endpoint: mean survival time, dose: 25.0 mg/kg/injection, schedule: Q04DX002 (ip), vehicle: saline 118 % of control | endpoint: mean survival time, dose: 50.0 mg/kg/injection, schedule: Q04DX002 (ip), vehicle: saline with Tween-80 95 % of control | endpoint: mean survival time, dose: 50.0 mg/kg/injection, schedule: Q04DX002 (ip), vehicle: saline 100 % of control | [6] 95 % of control

O=c1[nH]c2cc([N+](=O)[O-])ccc2c2ccccc12
inactive: endpoint: mean survival time, dose: 50.0 mg/kg/injection, schedule: Q01DX001 (ip), vehicle: carboxymethylcellulose (CMC) 101 % of control | endpoint: mean survival time, dose: 100.0 mg/kg/injection, schedule: Q01DX001 (ip), vehicle: carboxymethylcellulose (CMC) 98 % of control | endpoint: mean survival time, dose: 200.0 mg/kg/injection, schedule: Q01DX001 (ip), vehicle: carboxymethylcellulose (CMC) 98 % of control | endpoint: mean survival time, dose: 400.0 mg/kg/injection, schedule: Q01DX001 (ip), vehicle: carboxymethylcellulose (CMC) 98 % of control

Clc1ccccc1-c1nc2ccccc2[nH]1
inactive: [2] 98 % of control | [3] 96 % of control | [4] 96 % of control

O=S(=O)(O)NC1CCCCC1
inactive: [7] 96 % of control | [8] 95 % of control | [9] 91 % of control and 93 % of control

CC1=CC(=O)C(CCC#N)C(C)(C)C1 (stereo unspecified)
inactive: [6] 91 % of control

CCOC(=O)C(N)CSC(=O)NC (stereo unspecified)
inactive: endpoint: mean survival time, dose: 12.5 mg/kg/injection, schedule: Q01DX009 (ip), vehicle: saline 95 % of control | [7] 103 % of control and 107 % of control | [8] 116 % of control and 97 % of control | [9] 123 % of control and 105 % of control | endpoint: mean survival time, dose: 200.0 mg/kg/injection, schedule: Q01DX009 (ip), vehicle: saline 116 % of control and 111 % of control | endpoint: mean survival time, dose: 800.0 mg/kg/injection, schedule: Q01DX009 (ip), vehicle: saline 94 % of control

O=P(=O)OP(=O)=O.[O]=[W](=[O])=[O]
inactive: [10] 92 % of control | [3] 100 % of control | [4] 100 % of control | [5] 102 % of control

CN(C)S(=O)(=O)Oc1ccccc1N
inactive: [3] 99 % of control | [4] 87 % of control | [5] 94 % of control

CCCC[N+](CCCC)(CCCC)CCCC.[O-][PH+](O)O[PH+]([O-])O.[O-][PH+](O)O[PH+]([O-])O.[O-][PH+](O)O[PH+]([O-])O.[O-][PH+](O)O[PH+]([O-])O.[Pt+2].[Pt+2]
inactive: endpoint: median survival time, dose: 10.0 mg/kg/injection, schedule: Q04DX003 (ip), vehicle: water 100 % of control | endpoint: median survival time, dose: 40.0 mg/kg/injection, schedule: Q04DX003 (ip), vehicle: water 105 % of control

Oc1ccc(/C=N/NC(=S)Nc2ccccc2)nc1
inactive: [6] 106 % of control | [11] 106 % of control | [12] 95 % of control

O=[N+]([O-])c1cc(S(=O)(=O)c2ccc(N3CCOCC3)c([N+](=O)[O-])c2)ccc1N1CCOCC1
inactive: [10] 93 % of control | endpoint: mean survival time, dose: 200.0 mg/kg/injection, schedule: Q01DX009 (ip), vehicle: saline with Tween-80 101 % of control | endpoint: mean survival time, dose: 400.0 mg/kg/injection, schedule: Q01DX009 (ip), vehicle: saline with Tween-80 92 % of control

COc1ccc(N=C(C)CC(C)=O)cc1
inactive: [6] 98 % of control | [11] 95 % of control | [12] 95 % of control
